Measured values from patent publication US5156955A, “Nucleoside oxidase and assay method utilizing same” (priority 1988, dated 1992).
Like-named read-outs stand apart in the source and are kept apart here.

Legend:
[1] = system: nucleoside oxidase YT-1; experiment: Influence of metal ions on the activity; format: biochemical, Pseudomonas maltophilia LB-86; details: metal salt 0.1 mM; enzyme 0.02 U on inosine, pH 6.0, 25° C., 10 minutes
Description: A solution of the enzyme (0.02 U) was caused to act on inosine at pH 6.0 and 25° C. for 10 minutes in the presence of various metal ions, and the activity of the enzyme was thereafter measured to check the influence of the metal ions on the activity.

[2] = system: nucleoside oxidase YT-1; experiment: Substrate specificity test (nucleoside oxidase activity, oxygen consumption); format: biochemical, Pseudomonas maltophilia LB-86; details: for Relative activity: relative to activity on inosine taken as 100; for Substrate specificity (enzyme active / not active on substance): statement in words
Description: (§1) The consumption of 1 μM of oxygen per minute is taken as 1 unit (U).

[3] = system: nucleoside oxidase YT-1; experiment: Enzymatic activity test I: oxidation reaction products and stoichiometry; format: biochemical, Pseudomonas maltophilia LB-86; details: for oxygen consumption: 1 ml 100 mM phosphate buffer
Description: During a reaction period of 0 to 800 minutes, the reaction muxture was partly collected at suitable time intervals and analyzed by high performance liquid chromatography (HPLC) with a column of Fine SIL C18 (product of Japan Spectroscopic Co., Ltd.) using as a solvent 50 mM phosphate buffer (pH 3.0)/methanol=95/5 at a flow rate of 1.5 ml/min. Absorption was detected at 260 nm.
The amount of oxygen consumption was determined by an oxygen electrode, the amount of P-2 produced from the peak area of HPLC, and the amount of hydrogen peroxide by the phenol-4-aminoantipyrine peroxidase method and the ferrithiocyanide method (Ronald Thurman et al., Eur. J. Biochem., 25, 420-430 (1972)).

[4] = system: nucleoside oxidase YT-1; experiment: Specificity test on laccase substrate (laccase-like activity in presence of inosine); format: biochemical, Pseudomonas maltophilia LB-86; details: 1 mM laccase substrate, 7 mM inosine, one unit enzyme, 5 minutes
Description: The present enzyme was tested for the substrate specificity of its laccase-like activity in the presence of 7 mM inosine in the following manner. One unit of the present enzyme was added to a specimen containing 7 mM of inosine and 1 mM of the laccase substrate shown in Table 5, and the mixture was allowed to stand for 5 minutes. The absorption spectrum of the specimen was obtained before and after the addition of the enzyme.

[5] = system: nucleoside oxidase YT-1; details: for Amount of oxygen consumption / Amount of p-quinone formed: 0.06 μM inosine
[6] = system: nucleoside oxidase YT-1; format: biochemical, Pseudomonas maltophilia LB-86; details: for Effect of inhibitor (enzyme inhibited): statement in words
Description: A solution of the present enzyme (0.02 U) was caused to act on inosine at pH 6.0 and 25° C. for 10 minutes in the presence of various inhibitors, and the enzymatic activity was thereafter measured.

[7] = system: nucleoside oxidase YT-1; experiment: Km value; format: biochemical, Pseudomonas maltophilia LB-86; details: read-out: apparent Km value
Description: as §1

[8] = 0.02 μM 1,4-hydroquinone, 1 U enzyme, pH 7.0
[9] = 0.06 μM 1,4-hydroquinone, 1 U enzyme, pH 7.0
[10] = 0.60 μM 1,4-hydroquinone, 1 U enzyme, pH 7.0
[11] = inhibitor 1 mM, enzyme 0.02 U on inosine, pH 6.0, 25° C., 10 minutes

Structure (SMILES): O=S(=O)([O-])[O-].[Mn+2] [MnSO4]
- Relative activity [1]: 103%

Structure (SMILES): O=c1[nH]c(=O)c2[nH]cnc2[nH]1 [Xanthine]
- Relative activity ([2]; substrate 0.4 mM): 0%

Structure (SMILES): O=C[C@H]1O[C@@H](n2cnc3c(=O)[nH]cnc32)[C@H](O)[C@@H]1O [P-1, inosine-5'-aldehyde]
- oxygen consumption ([3]; 100 nanomoles of P-1, one U enzyme): 48 nmol
- hydrogen peroxide formed ([3]; 100 nanomoles of P-1 as substrate): No hydrogen peroxide was detected
- P-2 produced ([3]; from 100 nanomoles of P-1, one U enzyme): 97 nmol
- change on reaction with the enzyme sample (HPLC) ([3]; peak separated off by HPLC and reacted with enzyme): changed into P-2 with consumption of oxygen

Structure (SMILES): OC[C@H]1O[C@@H](n2cnc3c(O)ncnc32)C[C@@H]1O [Deoxyinosine]
- Relative activity ([2]; substrate 10 mM): 80.7%

Structure (SMILES): Cc1c[nH]c(=O)[nH]c1=O [Thymine]
- Relative activity ([2]; substrate 20 mM): 0%

Structure (SMILES): Cc1cc(O)cc(O)c1 [Orcinol]
- Change in absorption spectrum due to reaction [4]: New peak at 340 nm

Structure (SMILES): Nc1ccc(N)cc1 [p-Phenylendiamine]
- Change in absorption spectrum due to reaction [4]: New peak at 490 nm

Structure (SMILES): Cc1cn([C@H]2C[C@H](O)[C@@H](CO)O2)c(=O)[nH]c1=O [Deoxythymidine]
- Relative activity ([2]; substrate 10 mM): 77.3%

Structure (SMILES): O=C[C@H](O)[C@H](O)[C@H](O)CO [D-ribose]
- Substrate specificity (enzyme active / not active on substance) [2]: not active
- Relative activity ([2]; substrate 20 mM): 0%

Structure (SMILES): Nc1nc2c(ncn2[C@H]2C[C@H](O)[C@@H](CO)O2)c(=O)[nH]1 [Deoxyguanosine]
- Relative activity ([2]; substrate 10 mM): 92.3%

Structure (SMILES): Oc1ccc(O)cc1 [1,4-Hydroquinone]
- Change in absorption spectrum due to reaction [4]: New peak at 243 nm
- Amount of oxygen consumption [5, 8]: 0.069 µM
- Amount of p-quinone formed [5, 8]: 0.019 µM
- Amount of oxygen consumption [5, 9]: 0.089 µM
- Amount of p-quinone formed [5, 9]: 0.060 µM
- oxygen used for oxidizing 1,4-hydroquinone ([5]; 0.115 μM minus 0.06 μM used for inosine, 0.12 μM 1,4-hydroquinone): 0.055 µM
- Amount of p-quinone formed ([5]; 0.12 μM 1,4-hydroquinone, 1 U enzyme, pH 7.0): 0.115 µM
- Amount of oxygen consumption ([5]; 0.12 μM 1,4-hydroquinone, 1 U enzyme, pH 7.0 (Table 3)): 0.112 µM
- Amount of oxygen consumption ([5]; 0.12 μM 1,4-hydroquinone, room temperature, 10 minutes (stoichiometry test)): 0.115 µM
- Amount of oxygen consumption [5, 10]: 0.115 µM
- Amount of p-quinone formed [5, 10]: 0.119 µM
- laccase reaction without nucleoside ([5]; enzyme mixed with laccase substrate, no nucleoside present): no reaction occurs

Structure (SMILES): Nc1ncnc2c1ncn2[C@@H]1O[C@H](COP(=O)(O)OP(=O)(O)O)[C@@H](O)[C@H]1O [5'-ADP]
- Relative activity ([2]; substrate 10 mM): 0%

Structure (SMILES): [Cl-].[Cl-].[Co+2] [CoCl2]
- Relative activity [1]: 103%

Structure (SMILES): O=CC[C@H](O)[C@H](O)CO [2-Deoxy-D-ribose]
- Relative activity ([2]; substrate 20 mM): 0%

Structure (SMILES): c1ccc(-c2ccccn2)nc1 [α,α'-Dipyridyl]
- Relative activity [6, 11]: 96.7%

Structure (SMILES): CCN(CC)CCCC(C)Nc1c2ccc(Cl)cc2nc2ccc(OC)cc12 (centres unmarked) [Quinacrine]
- Relative activity [6, 11]: 95.6%

Structure (SMILES): Nc1nc2c(ncn2[C@@H]2O[C@H](COP(=O)(O)O)[C@@H](O)[C@H]2O)c(=O)[nH]1 [5'-GMP]
- Relative activity ([2]; substrate 10 mM): 0%

Structure (SMILES): O=P(O)(O)OC1O[C@H](CO)[C@@H](O)[C@H]1O (stereo partly drawn) [D-ribose-1-phosphoric acid]
- Relative activity ([2]; substrate 20 mM): 0%

Structure (SMILES): O=C(O)CN(CCN(CC(=O)O)CC(=O)O)CC(=O)O [EDTA]
- Relative activity ([6]; nucleoside oxidase yt-1, pH 6, 10 min, 1000 µM): 101%

Structure (SMILES): Nc1ccn([C@@H]2O[C@H](CO)[C@@H](O)[C@H]2O)c(=O)n1 [Cytidine]
- Relative activity ([2]; substrate 10 mM): 77.5%

Structure (SMILES): [Cl][Hg][Cl] [HgCl2]
- Relative activity [6, 11]: 69.2%

Structure (SMILES): OC[C@H]1O[C@@H](n2cnc3c(O)ncnc32)[C@H](O)[C@@H]1O [Inosine]
- Substrate specificity (enzyme active / not active on substance) [2]: Active
- Relative activity ([2]; substrate 10 mM): 100%
- Km [7]: 44 µM
- hydrogen peroxide formed ([3]; 50 nanomoles of inosine as substrate): No hydrogen peroxide was detected
- oxygen consumption ([3]; 50 nanomoles of inosine, one U enzyme): 51 nmol
- P-2 produced ([3]; from 50 nanomoles of inosine, one U enzyme): 47 nmol

Structure (SMILES): N#CO [Potassium cyanate]
- Relative activity [6, 11]: 34.8%
- Relative activity ([6]; inhibitor 10 mM, enzyme 0.02 U on inosine, pH 6.0, 25° C., 10 minutes): 0%
- Effect of inhibitor (enzyme inhibited) [6]: inhibited
- Effect of inhibitor (enzyme inhibited) ([6]; listed as potassium cianate): Inhibited

Structure (SMILES): O=c1[nH]cnc2nc[nH]c12 [Hypoxanthine]
- Substrate specificity (enzyme active / not active on substance) [2]: not active
- Relative activity ([2]; substrate 5.2 mM): 0%

Structure (SMILES): O=C1CCC(=O)N1Br [N-Bromosuccinimide]
- Relative activity [6, 11]: 0%
- Effect of inhibitor (enzyme inhibited) [6]: inhibited

Structure (SMILES): Cc1cn([C@H]2C[C@H](O)[C@@H](CO)O2)c(=O)[nH]c1=O [Thymidine]
- Relative activity ([2]; substrate 10 mM): 55.8%

Structure (SMILES): NN.O=S(=O)(O)O [Hydrazine sulfate]
- Relative activity [6, 11]: 101%

Structure (SMILES): O=C(O)/C=C/c1ccc(O)c(O)c1 [Caffeic acid]
- Change in absorption spectrum due to reaction [4]: New peak at 310 nm
